Here are results for 13 compounds from patent publication US7906507B2, “Oxadiazoanthracene compounds for the treatment of diabetes” (TransTech Pharma, Inc., priority 2008, dated 2011).

Each structure is given as a SMILES string.

This assay addresses T1, cloned human GLP-1 receptor (Homo sapiens, UniProt P43220).
T1 construct: expressed in transfected cells; host or cells: CHO or HEK-293 cells
The assay is described as follows: Functional cell-based assay: cAMP functional assay. To be noted: for Emax: 0.5 h, percentage relative to maximal GLP-1-induced cAMP accumulation, na = not active in the assay, read-out: % activation. How it is done:
Following overnight incubation of cells, media was removed, and compounds (at concentrations ranging from 0.0001 to 100 μM) were added to monolayer cells in Iscove's modified dulbecco's medium (IMDM), 100 μM RO 20-1724 PDE inhibitor, 0.1% BSA, 2% DMSO in a final volume of 100 μL, and incubated for 30 min at 37° C. 95% O2, 5% CO2 in a humidified incubator. cAMP was quantitated using a homogenous time-resolved fluorescence detection system (cAMP dynamic, CIS bio International).

T1 sequence (P43220 24-463): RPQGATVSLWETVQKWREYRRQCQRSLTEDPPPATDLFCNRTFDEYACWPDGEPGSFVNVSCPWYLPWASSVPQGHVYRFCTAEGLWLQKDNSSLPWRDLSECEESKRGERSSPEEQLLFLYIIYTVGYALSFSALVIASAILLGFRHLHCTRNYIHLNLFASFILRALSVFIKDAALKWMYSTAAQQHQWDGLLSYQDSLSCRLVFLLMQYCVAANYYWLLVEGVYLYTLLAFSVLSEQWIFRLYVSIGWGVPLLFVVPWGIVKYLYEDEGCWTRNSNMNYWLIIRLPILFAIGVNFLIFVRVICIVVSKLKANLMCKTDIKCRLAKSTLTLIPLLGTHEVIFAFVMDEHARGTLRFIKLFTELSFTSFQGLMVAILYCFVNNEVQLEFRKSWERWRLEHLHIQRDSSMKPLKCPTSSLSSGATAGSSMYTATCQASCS

For orientation: EC50 means the midpoint of the concentration-response curve. Read a low EC50 as greater potency. In the case of `Cc1ccccc1S(=O)(=O)N1Cc2cc3c(cc2C[C@H]1C(=O)N[C@@H](Cc1ccc(-c2ccc(C#N)cc2)cc1)C(=O)O)NC(=O)C(c1ccc(OCc2ccc(Cl)c(Cl)c2)cc1)O3` (stereo partly drawn) [Example 37, (S)-3-(4′-Cyano-biphenyl-4-yl)-2-{[(S)-3-[4-(3,4-dichloro-benzyloxy)-phenyl]-2-oxo-6-(toluene-2-sulfonyl)-2,3,5,6,7,8-hexahydro-1H-4-oxa-1,6-diaza-anthracene-7-carbonyl]-amino}-propionic acid], the response was half-maximal at 0.49 µM (EC50) and the Emax was determined as 32%.
For `Cc1ccccc1CN1Cc2cc3c(cc2C[C@H]1C(=O)N[C@@H](Cc1ccc(-c2ccc(C#N)cc2)cc1)C(=O)O)NC(=O)C(c1ccc(OCc2ccc(Cl)c(Cl)c2)cc1)O3` (stereo partly drawn) [Example 38, (S)-3-(4′-Cyano-biphenyl-4-yl)-2-{[(S)-3-[4-(3,4-dichloro-benzyloxy)-phenyl]-6-(2-methyl-benzyl)-2-oxo-2,3,5,6,7,8-hexahydro-1H-4-oxa-1,6-diaza-anthracene-7-carbonyl]-amino}-propionic acid] the same measures were 0.71 µM and 32%.
On the same counts, the results for `N#Cc1ccc(-c2ccc(C[C@H](NC(=O)[C@@H]3Cc4cc5c(cc4CN3Cc3cccs3)OC(c3ccc(OCc4ccc(Cl)c(Cl)c4)cc3)C(=O)N5)C(=O)O)cc2)cc1` (some centres unmarked) [Example 40] are 1.2 µM and 34%.
Regarding `N#Cc1ccc(-c2ccc(C[C@H](NC(=O)[C@@H]3Cc4cc5c(cc4CN3Cc3ccccc3F)OC(c3ccc(OCc4ccc(Cl)c(Cl)c4)cc3)C(=O)N5)C(=O)O)cc2)cc1` (stereo partly drawn) [Example 41, (S)-3-(4′-Cyano-biphenyl-4-yl)-2-{[(S)-3-[4-(3,4-dichloro-benzyloxy)-phenyl]-6-(2-fluoro-benzyl)-2-oxo-2,3,5,6,7,8-hexahydro-1H-4-oxa-1,6-diaza-anthracene-7-carbonyl]-amino}-propionic acid], a half-maximal response (EC50) required 0.43 µM and the Emax stood at 42%.
On the same counts, the results for `N#Cc1ccc(-c2ccc(C[C@H](NC(=O)[C@@H]3Cc4cc5c(cc4CN3Cc3ccccc3Cl)OC(c3ccc(OCc4ccc(Cl)c(Cl)c4)cc3)C(=O)N5)C(=O)O)cc2)cc1` (stereo partly drawn) [Example 42, (S)-2-({(S)-6-(2-Chloro-benzyl)-3-[4-(3,4-dichloro-benzyloxy)-phenyl]-2-oxo-2,3,5,6,7,8-hexahydro-1H-4-oxa-1,6-diaza-anthracene-7-carbonyl}-amino)-3-(4′-cyano-biphenyl-4-yl)-propionic acid] are 1 µM and 56%.
For `COc1ccccc1CN1Cc2cc3c(cc2C[C@H]1C(=O)N[C@@H](Cc1ccc(-c2ccc(C#N)cc2)cc1)C(=O)O)NC(=O)C(c1ccc(OCc2ccc(Cl)c(Cl)c2)cc1)O3` (stereo partly drawn) [Example 43, (S)-3-(4′-Cyano-biphenyl-4-yl)-2-{[(S)-3-[4-(3,4-dichloro-benzyloxy)-phenyl]-6-(2-methoxy-benzyl)-2-oxo-2,3,5,6,7,8-hexahydro-1H-4-oxa-1,6-diaza-anthracene-7-carbonyl]-amino}-propionic acid] the same measures were 0.5 µM and 34%.
As to `Cc1cccc(CN2Cc3cc4c(cc3C[C@H]2C(=O)N[C@@H](Cc2ccc(-c3ccc(C#N)cc3)cc2)C(=O)O)NC(=O)C(c2ccc(OCc3ccc(Cl)c(Cl)c3)cc2)O4)n1` (stereo partly drawn) [Example 44, (S)-3-(4′-Cyano-biphenyl-4-yl)-2-{[(S)-3-[4-(3,4-dichloro-benzyloxy)-phenyl]-6-(6-methyl-pyridin-2-ylmethyl)-2-oxo-2,3,5,6,7,8-hexahydro-1H-4-oxa-1,6-diaza-anthracene-7-carbonyl]-amino}-propionic acid], the midpoint of the response, the EC50, lay at 1 µM and the Emax turned out to be 25%.
On the same counts, the results for `N#Cc1ccc(-c2ccc(C[C@H](NC(=O)[C@@H]3Cc4cc5c(cc4CN3Cc3cccc(Br)n3)OC(c3ccc(OCc4ccc(Cl)c(Cl)c4)cc3)C(=O)N5)C(=O)O)cc2)cc1` (stereo partly drawn) [Example 45, (S)-2-({(S)-6-(6-Bromo-pyridin-2-ylmethyl)-3-[4-(3,4-dichloro-benzyloxy)-phenyl]-2-oxo-2,3,5,6,7,8-hexahydro-1H-4-oxa-1,6-diaza-anthracene-7-carbonyl}-amino)-3-(4′-cyano-biphenyl-4-yl)-propionic acid] are 1 µM and 18%.
On the same counts, the results for `CSc1nc(CN2Cc3cc4c(cc3C[C@H]2C(=O)N[C@@H](Cc2ccc(-c3ccc(C#N)cc3)cc2)C(=O)O)NC(=O)C(c2ccc(OCc3ccc(Cl)c(Cl)c3)cc2)O4)ccc1C#N` (stereo partly drawn) [Example 46, (S)-3-(4′-Cyano-biphenyl-4-yl)-2-({(S)-6-(5-cyano-6-methylsulfanyl-pyridin-2-ylmethyl)-3-[4-(3,4-dichloro-benzyloxy)-phenyl]-2-oxo-2,3,5,6,7,8-hexahydro-1H-4-oxa-1,6-diaza-anthracene-7-carbonyl}-amino)-propionic acid] are 1 µM and 22%.
On the same counts, the results for `N#Cc1ccc(-c2ccc(C[C@H](NC(=O)[C@@H]3Cc4cc5c(cc4CN3Cc3ncc[nH]3)OC(c3ccc(OCc4ccc(Cl)c(Cl)c4)cc3)C(=O)N5)C(=O)O)cc2)cc1` (stereo partly drawn) [Example 47, (S)-3-(4′-Cyano-biphenyl-4-yl)-2-{[(S)-3-[4-(3,4-dichloro-benzyloxy)-phenyl]-6-(1H-imidazol-2-ylmethyl)-2-oxo-2,3,5,6,7,8-hexahydro-1H-4-oxa-1,6-diaza-anthracene-7-carbonyl]-amino}-propionic acid] are 1.2 µM and 29%.
As to `Cn1ccnc1CN1Cc2cc3c(cc2C[C@H]1C(=O)N[C@@H](Cc1ccc(-c2ccc(C#N)cc2)cc1)C(=O)O)NC(=O)C(c1ccc(OCc2ccc(Cl)c(Cl)c2)cc1)O3` (stereo partly drawn) [Example 48, (S)-3-(4′-Cyano-biphenyl-4-yl)-2-{[(S)-3-[4-(3,4-dichloro-benzyloxy)-phenyl]-6-(1-methyl-1H-imidazol-2-ylmethyl)-2-oxo-2,3,5,6,7,8-hexahydro-1H-4-oxa-1,6-diaza-anthracene-7-carbonyl]-amino}-propionic acid], the midpoint of the response, the EC50, lay at 0.895 µM and the Emax was 64%.
`N#Cc1ccc(-c2ccc(C[C@H](NC(=O)[C@@H]3Cc4cc5c(cc4CN3Cc3nccs3)OC(c3ccc(OCc4ccc(Cl)c(Cl)c4)cc3)C(=O)N5)C(=O)O)cc2)cc1` (stereo partly drawn) [Example 49, (S)-3-(4′-Cyano-biphenyl-4-yl)-2-({(S)-3-[4-(3,4-dichloro-benzyloxy)-phenyl]-2-oxo-6-thiazol-2-ylmethyl-2,3,5,6,7,8-hexahydro-1H-4-oxa-1,6-diaza-anthracene-7-carbonyl}-amino)-propionic acid]: the EC50 amounted to 0.557 µM and the Emax was determined as 57%.
For `N#Cc1ccc(-c2ccc(C[C@H](NC(=O)[C@@H]3Cc4cc5c(cc4CN3C(=O)c3ccccn3)OC(c3ccc(OCc4ccc(Cl)c(Cl)c4)cc3)C(=O)N5)C(=O)O)cc2)cc1` (stereo partly drawn) [Example 50, (S)-3-(4′-Cyano-biphenyl-4-yl)-2-{[(S)-3-[4-(3,4-dichloro-benzyloxy)-phenyl]-2-oxo-6-(pyridine-2-carbonyl)-2,3,5,6,7,8-hexahydro-1H-4-oxa-1,6-diaza-anthracene-7-carbonyl]-amino}-propionic acid] the same measures were 1.22 µM and 49%.
